Values joined by “and” are separate entries in the source; they are usually repeats but may differ in a detail not shown here. Equal values may be shown once. Read-outs that look alike come from different tables or passages of the source. Blank lines part the entries; values can stand above or below the compound they belong to.
Columns and labels:
NR1/NR2A = NR1/NR2A (Rattus norvegicus, UniProt P35439+Q00959); experiment: Two electrode voltage clamp recording from Xenopus laevis oocytes; type: cell-based; details: relative to maximal glycine (100 μM), 100 μM glutamate
NR1/NR2B = NR1/NR2B (Rattus norvegicus, UniProt P35439+Q00960); experiment: as above; type: cell-based; details: relative to maximal glycine (100 μM), 100 μM glutamate
NR1/NR2C [1] = target: T1, NR1/NR2C (Rattus norvegicus, UniProt P35439+Q00961); experiment: as above; type: cell-based
T1 sequence (Q00961 20-1237, other chains not shown): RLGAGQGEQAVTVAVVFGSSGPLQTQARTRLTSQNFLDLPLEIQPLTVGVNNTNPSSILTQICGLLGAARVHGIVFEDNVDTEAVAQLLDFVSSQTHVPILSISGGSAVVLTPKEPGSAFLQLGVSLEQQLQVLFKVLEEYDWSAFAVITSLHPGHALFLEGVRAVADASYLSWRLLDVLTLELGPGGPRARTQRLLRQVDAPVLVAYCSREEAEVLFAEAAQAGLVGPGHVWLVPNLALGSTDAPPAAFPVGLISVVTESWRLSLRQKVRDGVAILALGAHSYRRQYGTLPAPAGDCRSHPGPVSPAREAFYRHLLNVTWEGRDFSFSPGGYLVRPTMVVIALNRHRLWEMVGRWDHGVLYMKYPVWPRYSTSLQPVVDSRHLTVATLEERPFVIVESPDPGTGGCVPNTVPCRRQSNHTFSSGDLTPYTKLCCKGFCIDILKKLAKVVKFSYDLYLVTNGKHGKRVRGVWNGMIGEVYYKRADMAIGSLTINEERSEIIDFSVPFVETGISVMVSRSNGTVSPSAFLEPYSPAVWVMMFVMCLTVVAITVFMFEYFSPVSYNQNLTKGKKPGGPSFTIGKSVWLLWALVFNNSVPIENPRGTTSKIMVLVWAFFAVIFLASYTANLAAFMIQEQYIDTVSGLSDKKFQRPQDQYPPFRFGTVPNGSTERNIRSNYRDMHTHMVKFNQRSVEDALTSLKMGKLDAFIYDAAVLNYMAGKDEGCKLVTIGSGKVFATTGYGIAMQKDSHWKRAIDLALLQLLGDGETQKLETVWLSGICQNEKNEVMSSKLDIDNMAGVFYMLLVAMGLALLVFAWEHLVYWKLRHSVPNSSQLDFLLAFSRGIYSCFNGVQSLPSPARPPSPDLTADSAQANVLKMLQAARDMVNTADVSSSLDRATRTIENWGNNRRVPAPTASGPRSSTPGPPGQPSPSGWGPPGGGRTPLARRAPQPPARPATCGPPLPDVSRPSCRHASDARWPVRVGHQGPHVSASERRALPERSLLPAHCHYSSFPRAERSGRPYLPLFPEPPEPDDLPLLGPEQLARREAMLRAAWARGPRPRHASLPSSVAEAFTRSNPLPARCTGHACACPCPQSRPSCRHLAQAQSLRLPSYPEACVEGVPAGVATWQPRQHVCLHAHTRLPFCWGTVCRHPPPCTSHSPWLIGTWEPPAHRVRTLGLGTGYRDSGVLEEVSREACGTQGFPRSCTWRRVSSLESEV

NR1/NR2D = NR1/NR2D (Rattus norvegicus, UniProt P35439+Q62645); experiment: as above; type: cell-based; details: relative to maximal glycine (100 μM), 100 μM glutamate
Chain of NR1/NR2D (Q62645 28-1323, other chains not shown): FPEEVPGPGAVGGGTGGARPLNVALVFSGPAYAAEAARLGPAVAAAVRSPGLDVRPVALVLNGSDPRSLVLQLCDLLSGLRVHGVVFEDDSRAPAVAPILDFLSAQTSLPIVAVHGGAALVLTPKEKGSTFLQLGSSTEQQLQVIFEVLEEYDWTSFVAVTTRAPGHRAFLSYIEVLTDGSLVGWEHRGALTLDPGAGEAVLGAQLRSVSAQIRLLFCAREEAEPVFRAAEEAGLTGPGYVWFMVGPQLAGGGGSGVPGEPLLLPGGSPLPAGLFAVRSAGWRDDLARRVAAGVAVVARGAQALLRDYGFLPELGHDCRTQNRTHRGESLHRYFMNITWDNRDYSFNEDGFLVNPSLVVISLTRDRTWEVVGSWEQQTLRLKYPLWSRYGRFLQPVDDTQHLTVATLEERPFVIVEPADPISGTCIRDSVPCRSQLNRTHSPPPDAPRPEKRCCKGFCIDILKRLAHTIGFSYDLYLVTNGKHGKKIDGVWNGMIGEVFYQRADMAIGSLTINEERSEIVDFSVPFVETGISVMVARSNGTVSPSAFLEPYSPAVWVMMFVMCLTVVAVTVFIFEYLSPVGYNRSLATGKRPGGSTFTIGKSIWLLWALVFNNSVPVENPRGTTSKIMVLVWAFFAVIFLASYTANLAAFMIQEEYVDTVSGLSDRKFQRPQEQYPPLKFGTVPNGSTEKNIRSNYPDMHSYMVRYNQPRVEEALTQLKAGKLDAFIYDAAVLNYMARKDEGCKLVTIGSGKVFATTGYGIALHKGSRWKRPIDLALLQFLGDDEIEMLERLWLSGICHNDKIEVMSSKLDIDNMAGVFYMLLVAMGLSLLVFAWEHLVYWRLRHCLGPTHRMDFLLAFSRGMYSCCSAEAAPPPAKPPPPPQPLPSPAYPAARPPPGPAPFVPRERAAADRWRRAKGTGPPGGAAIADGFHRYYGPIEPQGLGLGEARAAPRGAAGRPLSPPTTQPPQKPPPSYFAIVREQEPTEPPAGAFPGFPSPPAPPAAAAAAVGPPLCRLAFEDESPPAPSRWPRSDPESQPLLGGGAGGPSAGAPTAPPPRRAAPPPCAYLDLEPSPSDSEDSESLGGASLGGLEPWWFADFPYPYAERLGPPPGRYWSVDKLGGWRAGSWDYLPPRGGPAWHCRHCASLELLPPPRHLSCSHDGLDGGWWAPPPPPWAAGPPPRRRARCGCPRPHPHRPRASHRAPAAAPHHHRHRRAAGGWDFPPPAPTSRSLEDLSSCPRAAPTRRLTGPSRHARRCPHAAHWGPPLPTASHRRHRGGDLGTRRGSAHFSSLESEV

NR1(R523A)/NR2B = NR1(R523A)/NR2B (Rattus norvegicus, UniProt P35439+Q00960, R523A); experiment: TEVC recording from Xenopus oocytes, mutant receptor; type: cell-based
NR1(R523A)/NR2C = NR1(R523A)/NR2C (Rattus norvegicus, UniProt P35439+Q00961, R523A); experiment: as above; type: cell-based
Chain of NR1(R523A)/NR2C (Q00961 20-1237, other chains not shown): as the sequence (Q00961 20-1237, other chains not shown) above

NR1/NR2B(R693A) = NR1/NR2B(R693A) (Rattus norvegicus, UniProt P35439+Q00960, R693A); experiment: as above; type: cell-based
NR1/NR2C(R703A) = NR1/NR2C(R703A) (Rattus norvegicus, UniProt P35439+Q00961, R690A); experiment: as above; type: cell-based
Chain of NR1/NR2C(R703A) (Q00961 20-1237 R690A, other chains not shown): as the sequence (Q00961 20-1237, other chains not shown) above, with R671A counted along it

NR1/NR2A(E798Q) = NR1/NR2A(E798Q) (Rattus norvegicus, UniProt P35439+Q00959, E789Q); experiment: as above; type: cell-based
NR1/NR2B(E790Q) = NR1/NR2B(E790Q) (Rattus norvegicus, UniProt P35439+Q00960, E790Q); experiment: as above; type: cell-based
NR1/NR2C(Q800E) = NR1/NR2C(Q800E) (Rattus norvegicus, UniProt P35439+Q00961, Q787E); experiment: as above; type: cell-based
Chain of NR1/NR2C(Q800E) (Q00961 20-1237 Q787E, other chains not shown): as the sequence (Q00961 20-1237, other chains not shown) above, with Q768E counted along it

NR1/NR2D(E791Q) = NR1/NR2D(E791Q) (Rattus norvegicus, UniProt P35439+Q62645, E814Q); experiment: as above; type: cell-based
Chain of NR1/NR2D(E791Q) (Q62645 28-1323 E814Q, other chains not shown): as the sequence (Q62645 28-1323, other chains not shown) above, with E787Q counted along it

NR1/NR2B(E790A) = NR1/NR2B(E790A) (Rattus norvegicus, UniProt P35439+Q00960, E790A); experiment: as above; type: cell-based
Chain of NR1/NR2B(E790A) (Q00960 27-1482 E790A, other chains not shown): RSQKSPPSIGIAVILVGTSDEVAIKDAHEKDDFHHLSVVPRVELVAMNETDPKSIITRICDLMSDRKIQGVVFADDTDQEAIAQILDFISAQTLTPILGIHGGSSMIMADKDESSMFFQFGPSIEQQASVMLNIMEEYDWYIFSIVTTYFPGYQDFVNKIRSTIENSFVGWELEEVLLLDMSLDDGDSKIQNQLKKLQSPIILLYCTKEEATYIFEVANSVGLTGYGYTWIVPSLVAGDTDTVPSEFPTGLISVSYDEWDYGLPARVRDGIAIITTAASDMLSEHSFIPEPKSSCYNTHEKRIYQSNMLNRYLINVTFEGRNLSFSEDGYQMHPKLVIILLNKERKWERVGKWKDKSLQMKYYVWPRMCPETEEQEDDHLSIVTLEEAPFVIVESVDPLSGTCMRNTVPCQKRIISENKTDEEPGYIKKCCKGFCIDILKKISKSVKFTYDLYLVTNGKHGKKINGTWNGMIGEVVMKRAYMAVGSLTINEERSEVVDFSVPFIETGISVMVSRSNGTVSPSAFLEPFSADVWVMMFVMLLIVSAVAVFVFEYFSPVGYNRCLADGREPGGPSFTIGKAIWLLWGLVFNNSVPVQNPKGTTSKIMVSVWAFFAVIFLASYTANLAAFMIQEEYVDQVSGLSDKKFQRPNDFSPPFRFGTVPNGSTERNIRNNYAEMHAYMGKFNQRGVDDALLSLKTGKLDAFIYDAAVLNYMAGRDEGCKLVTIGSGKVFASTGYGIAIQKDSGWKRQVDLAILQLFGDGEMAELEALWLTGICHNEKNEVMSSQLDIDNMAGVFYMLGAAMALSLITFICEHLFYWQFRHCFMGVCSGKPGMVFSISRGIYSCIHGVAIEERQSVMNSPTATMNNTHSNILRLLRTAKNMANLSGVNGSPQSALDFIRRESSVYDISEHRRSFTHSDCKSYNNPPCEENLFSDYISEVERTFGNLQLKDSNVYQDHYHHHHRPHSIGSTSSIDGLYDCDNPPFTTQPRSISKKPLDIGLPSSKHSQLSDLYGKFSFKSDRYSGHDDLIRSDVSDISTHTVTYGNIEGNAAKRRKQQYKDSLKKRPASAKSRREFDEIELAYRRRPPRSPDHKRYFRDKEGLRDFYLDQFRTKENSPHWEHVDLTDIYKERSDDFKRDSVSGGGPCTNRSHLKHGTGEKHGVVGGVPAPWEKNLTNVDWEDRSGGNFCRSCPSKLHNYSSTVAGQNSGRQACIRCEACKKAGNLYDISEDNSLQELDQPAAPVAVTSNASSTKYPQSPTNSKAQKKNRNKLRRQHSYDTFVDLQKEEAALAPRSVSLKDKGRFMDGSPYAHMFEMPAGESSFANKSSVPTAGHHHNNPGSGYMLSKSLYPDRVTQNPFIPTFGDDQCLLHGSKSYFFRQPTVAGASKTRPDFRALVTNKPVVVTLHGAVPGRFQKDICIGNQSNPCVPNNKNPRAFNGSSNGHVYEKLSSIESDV

NR1/NR2C(Q800A) = NR1/NR2C(Q800A) (Rattus norvegicus, UniProt P35439+Q00961, Q787A); experiment: as above; type: cell-based
Chain of NR1/NR2C(Q800A) (Q00961 20-1237 Q787A, other chains not shown): as the sequence (Q00961 20-1237, other chains not shown) above, with Q768A counted along it

NR1(Y692A)/NR2A = NR1(Y692A)/NR2A (Rattus norvegicus, UniProt P35439+Q00959, Y692A); experiment: as above; type: cell-based
NR1(Y692A)/NR2B = NR1(Y692A)/NR2B (Rattus norvegicus, UniProt P35439+Q00960, Y692A); experiment: as above; type: cell-based
NR1(Y692A)/NR2C = NR1(Y692A)/NR2C (Rattus norvegicus, UniProt P35439+Q00961, Y692A); experiment: as above; type: cell-based
Chain of NR1(Y692A)/NR2C (Q00961 20-1237, other chains not shown): as the sequence (Q00961 20-1237, other chains not shown) above

NR1(Y692A)/NR2D = NR1(Y692A)/NR2D (Rattus norvegicus, UniProt P35439+Q62645, Y692A); experiment: as above; type: cell-based
Chain of NR1(Y692A)/NR2D (Q62645 28-1323, other chains not shown): as the sequence (Q62645 28-1323, other chains not shown) above

NR1(R755A)/NR2C = NR1(R755A)/NR2C (Rattus norvegicus, UniProt P35439+Q00961, R755A); experiment: as above; type: cell-based
Chain of NR1(R755A)/NR2C (Q00961 20-1237, other chains not shown): as the sequence (Q00961 20-1237, other chains not shown) above

NR1/NR2C(S707N,R710P) = NR1/NR2C(S707N,R710P) (Rattus norvegicus, UniProt P35439+Q00961, R697P/S694N); experiment: as above; type: cell-based
Chain of NR1/NR2C(S707N,R710P) (Q00961 20-1237 S694N/R697P, other chains not shown): as the sequence (Q00961 20-1237, other chains not shown) above, with S675N, R678P counted along it

NR1(E781A)/NR2B = NR1(E781A)/NR2B (Rattus norvegicus, UniProt P35439+Q00960, E781A); experiment: as above; type: cell-based
NR1(E781A)/NR2C = NR1(E781A)/NR2C (Rattus norvegicus, UniProt P35439+Q00961, E781A); experiment: as above; type: cell-based
Chain of NR1(E781A)/NR2C (Q00961 20-1237, other chains not shown): as the sequence (Q00961 20-1237, other chains not shown) above

NR1/NR2C [2] = target: T1, NR1/NR2C; type: cell-based
NR1/NR2C [3] = target: T1, NR1/NR2C; experiment: Single-channel recording from outside-out patches containing one active channel; type: cell-based
NR1/NR2C [4] = target: T1, NR1/NR2C; experiment: Maximum interval likelihood fitting of Scheme 1 to single channel data; type: cell-based
NR1/NR2C [5] = target: T1, NR1/NR2C; experiment: Least-squares fitting of Scheme 1a to macroscopic currents; type: cell-based
[6] = ref McBain et al., 1989; cited from earlier work
[7] = 1 s concentration jump from DCS into glutamate plus DCS
[8] = 1 mM agonist + 1 mM glutamate, 0.5 mM Ca2+
[9] = 1 mM agonist + 1 mM glutamate, 0.5 mM Ca2+, reversal potential assumed 0 mV
[10] = Figure 7B, paired recordings glycine vs DCS
[11] = average of 6 individually fitted patches
[12] = composite open time histogram from 6 patches
[13] = composite shut time histogram from 6 patches
[14] = representative recording from one patch (Figure 8B)
[15] = Table 2, Scheme I (Monte Carlo simulation of gating model)
[16] = this particular patch (Figure 8B), MIL fit Scheme 1

Structure (SMILES): N[C@@H]1CON=C1O [DCS, D-cycloserine]
DCS Efficacy (% glycine) (NR1/NR2A): 90 ± 2 % glycine
DCS Efficacy (% glycine) (NR1/NR2B): 65 ± 2 % glycine
DCS Efficacy (% glycine) (NR1/NR2C [1]; NR1/NR2C, relative to maximal glycine (100 μM), 100 μM glutamate): 190 ± 6 % glycine and 190 % glycine
DCS Efficacy (% glycine) (NR1/NR2D): 94 ± 2 % glycine
DCS Efficacy (% glycine) (NR1(R523A)/NR2B): 31±2 % glycine
DCS Efficacy (% glycine) (NR1(R523A)/NR2C): 254±20 % glycine
DCS Efficacy (% glycine) (NR1/NR2B(R693A)): 68 ± 3 % glycine
DCS Efficacy (% glycine) (NR1/NR2C(R703A)): 190 ± 4 % glycine
DCS Efficacy (% glycine) (NR1/NR2A(E798Q)): 90 ± 2 % glycine
DCS Efficacy (% glycine) (NR1/NR2B(E790Q)): 78 ± 1 % glycine
DCS Efficacy (% glycine) (NR1/NR2C(Q800E)): 130 ± 4 % glycine
DCS Efficacy (% glycine) (NR1/NR2D(E791Q)): 110 ± 1 % glycine
DCS Efficacy (% glycine) (NR1/NR2B(E790A)): 68 ± 3 % glycine
DCS Efficacy (% glycine) (NR1/NR2C(Q800A)): 191 ± 7 % glycine
DCS Efficacy (% glycine) (NR1(Y692A)/NR2A): 77 ± 1 % glycine
DCS Efficacy (% glycine) (NR1(Y692A)/NR2B): 46 ± 1 % glycine
DCS Efficacy (% glycine) (NR1(Y692A)/NR2C): 59 ± 2 % glycine
DCS Efficacy (% glycine) (NR1(Y692A)/NR2D): 75 ± 1 % glycine
DCS Efficacy (% glycine) (NR1(R755A)/NR2C): 100 % glycine and 100 ± 5 % glycine
DCS Efficacy (% glycine) (NR1/NR2C(S707N,R710P)): 190 ± 7 % glycine
DCS Efficacy (% glycine) (NR1(E781A)/NR2B): 10 ± 1 % glycine
DCS Efficacy (% glycine) (NR1(E781A)/NR2C): 150 ± 10 % glycine
Rise time (NR1/NR2C [2]; [7]): 3.8 ± 0.7 ms
glutamate deactivation time course (NR1/NR2C [2]; [7]): 242 ± 50 ms
Deactivation (NR1/NR2C [2]; Table 3, Experimental): 130 to 160 ms
Desensitization (τ1) (NR1/NR2C [2]; Table 3, Experimental): 32 ms
Desensitization (τ2) (NR1/NR2C [2]; Table 3, Experimental): 540 ms
Rise time (NR1/NR2C [2]; Table 3, Experimental): 3.1 to 4.9 ms
area of larger conductance level (NR1/NR2C [3]; [8]): 72 ± 8%
area of smaller conductance level (NR1/NR2C [3]; [8]): 28 ± 5%
conductance level (larger) (NR1/NR2C [3]; [9]): 45 ± 5 pS
conductance level (smaller) (NR1/NR2C [3]; [9]): 28 ± 3 pS
mean duration of all open periods (NR1/NR2C [3]; 1 mM agonist + 1 mM glutamate, 6 one-channel patches): 0.61 ± 0.06 ms
open probability (Po) (NR1/NR2C [3]; 1 mM agonist + 1 mM glutamate, patches with a single active channel): 0.029 ± 0.006
mean open time, % of control (glycine) (NR1/NR2C [3]; DCS vs glycine, paired patches): 132%
open probability, % of control (glycine) (NR1/NR2C [3]; DCS vs glycine, paired patches): 163%
mean open time increased by, in the presence of DCS (NR1/NR2C [3]; [10]): 131 ± 4%
open probability increased by, in the presence of DCS (NR1/NR2C [3]; [10]): 194 ± 33%
MOT (mean open time) (NR1/NR2C [3]; Table 2, Experimental): 0.57 ms
Steady state Po (NR1/NR2C [3]; Table 3, Experimental): 0.028
area of shut τ2 (NR1/NR2C [3]; [11]): 10%
area of shut τ3 (NR1/NR2C [3]; [11]): 30%
area of shut τ4 (NR1/NR2C [3]; [11]): 36%
area of shut τ5 (NR1/NR2C [3]; [11]): 5%
shut time constant τ1 (NR1/NR2C [3]; [11]): 0.04 ± 0.005 ms
shut time constant τ2 (NR1/NR2C [3]; [11]): 0.55 ± 0.16 ms
shut time constant τ3 (NR1/NR2C [3]; [11]): 8.5 ± 1.2 ms
shut time constant τ4 (NR1/NR2C [3]; [11]): 34 ± 4 ms
shut time constant τ5 (NR1/NR2C [3]; [11]): 220 ± 79 ms
area of open time τ1 (NR1/NR2C [3]; [12]): 49%
area of open time τ2 (NR1/NR2C [3]; [12]): 51%
open time constant τ1 (NR1/NR2C [3]; [12]): 0.32 ms
open time constant τ2 (NR1/NR2C [3]; [12]): 0.76 ms
area of shut τ2 (NR1/NR2C [3]; [13]): 10%
area of shut τ3 (NR1/NR2C [3]; [13]): 36%
area of shut τ4 (NR1/NR2C [3]; [13]): 32%
area of shut τ5 (NR1/NR2C [3]; [13]): 3%
shut time constant τ1 (NR1/NR2C [3]; [13]): 0.037 ms
shut time constant τ2 (NR1/NR2C [3]; [13]): 0.48 ms
shut time constant τ3 (NR1/NR2C [3]; [13]): 9.5 ms
shut time constant τ4 (NR1/NR2C [3]; [13]): 36 ms
shut time constant τ5 (NR1/NR2C [3]; [13]): 248 ms
apparent mean open time (NR1/NR2C [3]; [14]): 0.52 ms
open probability (NR1/NR2C [3]; [14]): 0.026
d1+ (NR1/NR2C [4]; MIL fit Scheme 1, six patches): 1.2 ± 0.4 s⁻¹
d1− (NR1/NR2C [4]; MIL fit Scheme 1, six patches): 4.2 ± 1.0 s⁻¹
d2+ (NR1/NR2C [4]; MIL fit Scheme 1, six patches): 25 ± 8 s⁻¹
d2− (NR1/NR2C [4]; MIL fit Scheme 1, six patches): 38 ± 7 s⁻¹
k1+ (NR1/NR2C [4]; MIL fit Scheme 1, six patches): 420 ± 80 s⁻¹
k1− (NR1/NR2C [4]; MIL fit Scheme 1, six patches): 1270 ± 340 s⁻¹
k2+ (forward rate of the fast gating step) (NR1/NR2C [4]; MIL fit Scheme 1, six patches): 1395 ± 215 s^−1 and 1395± 215 ^* s^−1
k2− (NR1/NR2C [4]; MIL fit Scheme 1, six patches): 17510 ± 2135 s⁻¹
k3+ (NR1/NR2C [4]; MIL fit Scheme 1, six patches): 4795 ± 815 s⁻¹
k3− (closing rate) (NR1/NR2C [4]; MIL fit Scheme 1, six patches): 2150 ± 210 s^−1 and 2150 ± 210 ^* s^−1
k4+ (NR1/NR2C [4]; MIL fit Scheme 1, six patches): 75 ± 35 s⁻¹
k4− (NR1/NR2C [4]; MIL fit Scheme 1, six patches): 1070 ± 130 s⁻¹
MOT (mean open time) (NR1/NR2C [4]; [15]): 0.61 ms
Po (NR1/NR2C [4]; [15]): 0.029
LL/event (log likelihood per event) (NR1/NR2C [4]; goodness of MIL fit of Scheme 1): 4.86 ± 0.05
rate constant k2+ (NR1/NR2C [4]; [16]): 2150 s⁻¹
rate constant k3− (NR1/NR2C [4]; [16]): 2388 s⁻¹
Deactivation (NR1/NR2C [5]; Scheme Ia): 245 ms
Desensitization (τ1) (NR1/NR2C [5]; Scheme Ia): 15 ms
Desensitization (τ2) (NR1/NR2C [5]; Scheme Ia): 130 ms
Peak Po (NR1/NR2C [5]; Scheme Ia): 0.042
Rise time (NR1/NR2C [5]; Scheme Ia): 2.4 ms
Steady state Po (NR1/NR2C [5]; Scheme Ia): 0.030
Residual (normalized residual sum of squares) (NR1/NR2C [5]; Scheme Ia macroscopic fit): 2.67 × 10^−3
d1+ (NR1/NR2C [5]; Scheme Ia macroscopic fit): 1.4 s⁻¹
d1− (NR1/NR2C [5]; Scheme Ia macroscopic fit): 5.7 s⁻¹
d2+ (NR1/NR2C [5]; Scheme Ia macroscopic fit): 6.7 s⁻¹
d2− (NR1/NR2C [5]; Scheme Ia macroscopic fit): 16 s⁻¹
b+ (agonist binding rate) (NR1/NR2C [5]; glutamate binding step, Scheme Ia, with the labelled NR1 agonist): 560000 M⁻¹ s⁻¹
b− (unbinding rate) (NR1/NR2C [5]; glutamate unbinding step, Scheme Ia, with the labelled NR1 agonist): 3.4 s⁻¹
pKa for exocyclic amine [6]: 7.5
pKa for the exocyclic oxygen [6]: 4.5

EC50 (NR1/NR2C [1]; read-out: EC50 for glutamate): 420 ± 40 nM
Structure (SMILES): N[C@@H](CCC(=O)O)C(=O)O [glutamate]

Source: publication PMC2862277 (The Journal of neuroscience : the official journal of the …, 2010)
